Test results from patent US20240208896A1, “PRODRUGS OF KV7 CHANNEL OPENERS” (Xyzagen, Inc., priority 2021, published 2024).
Read-outs that look alike come from different tables or passages of the source.

Key:
[1] = Solvent solubility assessment by visual inspection; type: physicochemical
Protocol: Compounds were weighed and placed into a 4 dram vials and solvents were added to the target concentration. Compounds were vortex and visually inspected for particulates and considered soluble if clear upon visual inspection with and without magnification. Solubility was reported as either greater than (>) or less than (<) from the prepared concentration. […] It was evaluated at 10 mg/mL in 0.1 N NaCl and was freely soluble. It was evaluate at 1 mg/mL in 0.1 N NaOH and 0.1 N Na2HPO4 and was freely soluble. In ethanol and methanol it was freely soluble at a concentration of 75 mg/mL. […] It was freely soluble at 75 mg/mL in methanol and ethanol. It was soluble at 1 mg/mL in 1N HCl.

[2] = tested on: MES induced seizures in Rat; assay: SD rat MES test after IM administration; type: in vivo; conditions: SD rats, IM 75 mg/kg
Protocol: All treatments were at 0.083, 0.25, 0.5, 1, 2, 4, and 8 hours prior to the administration of MES test, where 6 seconds where 6 seconds without a seizure was considered protected.

[3] = target: Human Kv7.2/7.3 (Homo sapiens, UniProt O43525+O43526); assay: In vitro screen of Kv7.2/7.3 voltage gated potassium channels (FluxOR, FLIPR); type: cell-based; conditions: Human Kv7.2/7.3 cells; FluxOR fluorescence; 0.03 to 30 μM
Chain of Human Kv7.2/7.3 (O43526 whole entry): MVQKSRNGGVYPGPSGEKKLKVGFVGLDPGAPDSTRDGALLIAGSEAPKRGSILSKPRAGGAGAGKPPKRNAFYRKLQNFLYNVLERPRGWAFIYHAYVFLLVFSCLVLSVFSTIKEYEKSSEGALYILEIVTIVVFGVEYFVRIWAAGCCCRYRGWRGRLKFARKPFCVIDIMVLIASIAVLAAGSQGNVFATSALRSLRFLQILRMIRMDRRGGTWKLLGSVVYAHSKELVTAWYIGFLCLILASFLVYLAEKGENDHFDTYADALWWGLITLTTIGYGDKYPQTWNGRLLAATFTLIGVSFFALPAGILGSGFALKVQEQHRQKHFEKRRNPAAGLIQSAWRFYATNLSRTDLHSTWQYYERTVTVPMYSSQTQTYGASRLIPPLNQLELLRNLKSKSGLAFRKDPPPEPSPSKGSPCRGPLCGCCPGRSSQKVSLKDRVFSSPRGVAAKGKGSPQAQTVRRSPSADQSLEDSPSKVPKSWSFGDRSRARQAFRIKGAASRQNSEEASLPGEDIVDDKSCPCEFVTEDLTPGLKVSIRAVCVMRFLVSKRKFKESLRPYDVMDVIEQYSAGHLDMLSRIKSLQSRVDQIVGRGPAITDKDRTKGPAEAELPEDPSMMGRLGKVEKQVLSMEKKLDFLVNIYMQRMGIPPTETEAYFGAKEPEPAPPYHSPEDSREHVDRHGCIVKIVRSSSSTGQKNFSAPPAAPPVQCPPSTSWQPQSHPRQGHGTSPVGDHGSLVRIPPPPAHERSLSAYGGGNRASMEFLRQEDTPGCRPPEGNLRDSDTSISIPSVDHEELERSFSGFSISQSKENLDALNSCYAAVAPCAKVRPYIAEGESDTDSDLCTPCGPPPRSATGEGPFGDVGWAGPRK
Chain of Human Kv7.2/7.3 (O43525 whole entry): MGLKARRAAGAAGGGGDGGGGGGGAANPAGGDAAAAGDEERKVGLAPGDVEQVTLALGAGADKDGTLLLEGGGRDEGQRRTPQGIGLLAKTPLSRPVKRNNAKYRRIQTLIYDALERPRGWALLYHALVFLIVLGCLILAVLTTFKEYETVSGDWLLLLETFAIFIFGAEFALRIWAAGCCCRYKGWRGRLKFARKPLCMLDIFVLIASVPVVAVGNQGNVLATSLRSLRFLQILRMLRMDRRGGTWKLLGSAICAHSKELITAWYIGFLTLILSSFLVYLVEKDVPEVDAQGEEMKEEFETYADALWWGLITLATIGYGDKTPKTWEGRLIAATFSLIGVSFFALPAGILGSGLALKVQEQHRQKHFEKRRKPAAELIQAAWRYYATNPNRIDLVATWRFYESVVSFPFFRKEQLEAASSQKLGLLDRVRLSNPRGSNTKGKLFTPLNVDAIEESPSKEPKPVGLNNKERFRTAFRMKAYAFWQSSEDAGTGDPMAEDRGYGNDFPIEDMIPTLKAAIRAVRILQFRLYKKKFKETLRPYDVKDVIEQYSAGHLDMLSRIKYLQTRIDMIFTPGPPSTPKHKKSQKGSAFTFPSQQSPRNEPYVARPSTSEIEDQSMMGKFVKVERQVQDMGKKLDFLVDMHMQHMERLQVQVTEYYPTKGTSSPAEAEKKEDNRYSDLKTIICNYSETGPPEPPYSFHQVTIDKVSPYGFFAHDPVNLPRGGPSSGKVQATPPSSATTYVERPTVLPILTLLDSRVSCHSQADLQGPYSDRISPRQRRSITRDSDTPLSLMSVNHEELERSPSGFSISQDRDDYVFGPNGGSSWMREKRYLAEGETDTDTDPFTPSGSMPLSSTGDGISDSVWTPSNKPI
Protocol: Human Kv7.2/7.3 cells are harvested, counted and seeded in black, clear-bottomed 96 well plates at a density of 50,000 cells per well in 100 μl volume and incubated overnight. The following day, media was removed and 40 μl of loading buffer (4.895 mL HBSS:HEPES, 50 μL probenecid, 50 μL power load, 5 μl FluxOR reagent) was added and incubated at room temperature for 30 minutes. After incubation loading buffer was removed and 40 μl of assay buffer added (4.45 ml HBSS:HEPES, 500 μl FluxOR assay buffer and 50 μL probenecid) and incubated for 10 minutes.

[4] = Acid and organic solution stability, HPLC-UV 250 nm; conditions: 5 mg/mL
Protocol: An HPLC-UV Vis method was developed using 0.1% Formic acid in water as mobile phase A and 0.1% Formic acid in acetonitrile as mobile Phase B. A gradient method was developed ramping from 10% A to 90% B over 8 minutes and then returning to 10% A at 8.5 minutes on a 4.6×50 mm Zorbax C-18 column. Injections of 10 uL of stability solutions were injected for analyte detection.
[…] Aliquots were collected at serial time points and then diluted to a nominal concentration of 100 ug/mL for injection to the HPLC and 250 nm monitored by the diode array detector. Data at approximately 10 days is presented.
Aliquots were collected at serial time points and then diluted to a nominal concentration of 100 ug/mL for injection to the HPLC and 250 nm monitored by the diode array detector.
(§1) It was also evaluated at 2 N HCl at 37° C. Aliquots were collected at serial time points and then diluted to a nominal concentration of 100 ug/mL for injection to the HPLC and 250 nm monitored by the diode array detector.
as §1, §1, §1

[5] = Benchtop solvent stability exposed to light, HPLC-UV 230 nm, up to 7 days; type: physicochemical; conditions: over 4 days
Protocol: Compounds in solvent were left on the benchtop exposed to light for up to 7 days since it is known that Compound 1 will degrade with light within 3-7 days.
Stability was assessed by taking an aliquot from the solubility vials at each test day. A single replicate was injected for each test condition.
Samples were injected onto an HPLC system with an aqueous mobile phase and acetonitrile organic phase and compounds were separated on a C8 50×2 mm column. Wavelength 230 nm was monitored for absorption and integrated for peak area while the mass spectrometer was used to confirm mass. Samples were tested on Day 1 and on subsequent days through Day 7.

[6] = tested on: formalin inflammatory model; assay: Formalin inflammatory pain model (hind paw flick/lick); type: in vivo; conditions: male CD-1 mouse; 100 mg/kg SC 30 minutes before 5% formalin; both phases (0-10 and 15-40 min)
Protocol: Compound 4 was assessed in the […] formalin inflammatory model. The number of flicks/licks of a male CD-1 mouse in the acute phase 0-10 minute and the inflammatory phase from 15-40 min after intraplantar administration of 50 μL of 5% formalin was recorded. […] Data is presented over the duration of the observation periods in 2 minute bins.

[7] = Rat PK at equimolar dose to Ezogabine (20 mg/kg) in 0.5% methylcellulose; conditions: male cannulated rats; equimolar to Ezogabine 20 mg/kg; 0.5% methylcellulose; analyte the dosed prodrug
Protocol: (§2) Blood samples were collected at the same time points over 24 hours to generate a concentration time profile. Two male rats were dosed per group. Plasma samples were analyzed by LC/MS/MS and the resulting concentration time profiles and PK parameters are provided.
as §2, §2

[8] = 1000 ng/mL
Protocol: Plasma was collected by the biomaterial vendor and kept frozen at −20° C.
The samples were analyzed by HPLC separation and mass spectrometry detection for prodrug amount, relative to a baseline time 0 control sample. Triplicate samples were generated at each time point and the peak area response was averaged and converted to a percent of baseline control.

[9] = Pharmacokinetics of ezogabine prodrugs in rat (IV, IM, PO); conditions: rat, in vivo, po
Protocol: Blood was diluted by 10% with these stabilizers.
Extraction of the molecules was conducted by taking a 50 uL aliquot of plasma and adding 200 uL of acetonitrile containing 200 ng/mL tolbutamide as the internal standard. Samples were precipitated in a 96 well plate, centrifuges and an aliquot transferred to a new plate, dried down under heat and nitrogen and then reconstituted in the initial mobile phase conditions of the LC-MS/MS method. […] A standard curve was prepared from 5000 ng/mL to 1 ng/mL for each analyte. Concentration data from the bioanalytical run was analyzed by Phoenix Winnonlin version 8 for noncompartmental PK analysis, plotting of concentration time curves and tabulation of PK parameters.
150 uL of blood were collected at predesignated time points. At completion of the study animals were asphyxiated by carbon dioxide gas and exsanguinated for euthanasia.

CCOC(=O)Nc1ccc(NCc2ccc(F)cc2)cc1NC(=O)[C@@H](N)CCCCN [Compound 4]
Solubility ([1]; 0.1N HCl): >20 mg/mL
Solubility ([1]; 0.1 N Na2HPO4, aqueous buffer, thermodynamic from solid, read-out: Solubility (freely soluble at tested concentration)): > 1 mg/mL
Solubility ([1]; 0.1N NaCl): >10 mg/mL
Solubility ([1]; 0.1 N NaCl, saline or isotonic, thermodynamic from solid, read-out: Solubility (freely soluble at tested concentration)): > 10 mg/mL
Solubility ([1]; 0.1N NaOH): >1 mg/mL
Solubility ([1]; 0.1 N NaOH, aqueous buffer, thermodynamic from solid, read-out: Solubility (freely soluble at tested concentration)): > 1 mg/mL
Solubility ([1]; 0.1 Na2HPO4): >1 mg/mL
Solubility ([1]; Ethanol): >75 mg/mL
Solubility ([1]; Methanol): >75 mg/mL
Solubility ([1]; Water): >20 mg/mL
Solubility ([1]; ethanol, organic solvent or mixture, thermodynamic from solid, read-out: Solubility (freely soluble at tested concentration)): > 75 mg/mL
Solubility ([1]; methanol, organic solvent or mixture, thermodynamic from solid, read-out: Solubility (freely soluble at tested concentration)): > 75 mg/mL
Solubility ([1]; saline or isotonic, 0.9% w/v NaCl, for in vivo studies, read-out: Solubility (formulated as freely soluble solution)): ≥ 150 mg/mL
Solubility ([1]; simulated gastric fluid, thermodynamic from solid, 0.1N HCl, read-out: Solubility (freely soluble at tested concentration)): > 20 mg/mL
Solubility ([1]; water, thermodynamic from solid, read-out: Solubility (freely soluble at tested concentration)): > 20 mg/mL
Protection from MES induced seizures ([2]; 2 through 8 hours post dose): fully protected
Protection from MES induced seizures ([2]; 1 h post dose): almost fully protected
Activity against the primary target of Kv7.2/7.3 [3]: inactive
Colour of stability solution [4]: remained clear and colorless through Day 18
Ezogabine Area (formed from the prodrug) ([4]; 0.1N HCl, room temp., normal light, 269 h): 0 mAU
Ezogabine Area (formed from the prodrug) ([4]; 1N HCl, room temp., normal light, 269 h): 0 mAU
Ezogabine Area (formed from the prodrug) ([4]; 2N HCl 37C, 436 h): 167 mAU
Ezogabine Area (formed from the prodrug) ([4]; 2N HCl, room temp., normal light, 269 h): 38 mAU
Ezogabine Area (formed from the prodrug) ([4]; Methanol, room temp., normal light, 437 h): 0 mAU
Ezogabine Area (formed from the prodrug) ([4]; PBS, room temp., normal light, 435 h): 0 mAU
Degradation / conversion to ezogabine in solution ([4]; acidic solutions and organic solvents, up to 3 weeks): very little degradation to ezogabine
% Remaining ([4]; 437 h): 98.5%
% Remaining ([4]; buffer, 435 h): 99.2%
% Remaining ([4]; buffer, 436 h): 94.9%
Reduction in peak area ([5]; 0.1N NaOH): > 50%
Stability in solvent ([5]; all test conditions except 0.1 N NaOH): appears stable
Reduction in behavioral response (flicks/licks) compared to vehicle [6]: 50%
AUClast/D [7]: 6.26 ng·h/mL/mg/kg
Cmax/D [7]: 2.34 ng/mL/mg/kg
Time by which prodrug is degraded in plasma ([8]; mouse): ≤ 6 h
Plasma stability ([8]; rat, 6 h): stable through 6 hours
Percent remaining in plasma ([8]; rat, plasma, 23 h): below 50%
Exposure of the prodrug itself in systemic circulation [9]: slightly more detectable
